# Measurements taken from patent US20220273689A1, “POTENTIATION OF ANTIVIRAL NUCLEOBASES AS RNA VIRUS THERAPY” (REGENTS OF THE UNIVERSITY OF MINNESOTA, priority 2019, published 2022).
# “Also recorded” adds a separate entry of the source. Where two headings read alike, the source gives them in different places.
# Key:
# DENV replicon = format: cell-based, Dengue virus (DENV); details: for antiviral activity of nucleobase alone: 0.6 μM nucleobase, without 6-MMPR; for antiviral (anti-replicon) activity when supplemented with 6-MMPR: nucleobase supplemented with 0.01 μM 6-MMPR
# [1] = Cell viability assay (MTS) in DENV replicon cells; details: hamster
# [2] = tested on: DENV replicon cells (BHK); test: Cell viability assay (MTS) in DENV replicon cells; details: for CC50: DENV replicon BHK cells, MTS, 72 h
# DENV-2 viral replicon [3] = details: for TTI, tissue culture therapeutic index (CC50/EC50): DENV replicon BHK cells
# DENV-2 viral replicon [4] = test: microbe, parasite or virus in culture; details: Dengue virus, DENV2, BHK, 72 h
# DENV = DENV titer reduction assay in Huh-7 cells, dose-response; format: cell-based; details: Dengue virus
# ZIKV = test: Potentiation in replication-competent ZIKV titer reduction assay using Huh-7 cells; details: 0.1 μM 6-MMPR, infectious virus titer
# Method: DENV and ZIKV. Huh7 cells were plated in each well of a 24 well plate (1×10^5/well). Twenty-four hours later, cells were inoculated with DENV 2 or ZIKV at a multiplicity of infection (MOI) of 0.05. Two hours post-inoculation, inoculum was retired and fresh medium containing treatment was added. Columns 1 to 6 were treated with increasing concentrations of 6-MMPR (0, 0.025, 0.05, 0.1, 0.2 and 0.4 μM). Rows A to D were treated with 0, 25, 50 and 100 μM of T-1105. Supernatants were collected after 72 hours post-infection and infectious virions were analyzed by plaque assay as extent of infectious virus production.
# DENV 2 = test: Potentiation in replication-competent DENV assay using Huh-7 cells (plaque assay, MacSynergy II); details: for synergy/potentiation with 6-MMPR for reduction in DENV replication: Huh7 cells, 0.1 μM 6-MMPR, infectious virus titer (FIG. 9); for potentiation/synergy with 6-MMPR of anti-DENV activity: Huh-7 cells, matrix of 6-MMPR and T-1105, infectious virus titer (FIG. 6)
# Method: Huh7 cells were plated in each well of a 24 well plate (1×10^5/well). Twenty-four hours later, cells were inoculated with DENV 2 or ZIKV at a multiplicity of infection (MOI) of 0.05. Two hours post-inoculation, inoculum was retired and fresh medium containing treatment was added. Columns 1 to 6 were treated with increasing concentrations of 6-MMPR (0, 0.025, 0.05, 0.1, 0.2 and 0.4 μM). Rows A to D were treated with 0, 25, 50 and 100 μM of T-1105. Supernatants were collected after 72 hours post-infection and infectious virions were analyzed by plaque assay as extent of infectious virus production. For FIG. 5, Huh7 cells were inoculated with DENV or ZIKV and treated with different concentrations of T-1105 (0, 3, 9, 27, 51 or 243 μM), T-1106 (0, 6.7, 20, 60, 180 or 540 μM) and T-705 (same concentrations as T-1106) in combination with 0.1 μM AM28 or DMSO. After 72 hours post infection supernatants were collected and analyzed for viral yield by plaque assay.
# [5] = Safety of the combination in DENV mouse model; format: in vivo; details: health of the mice / body weight
# Method: The mice were treated with Vehicle, the combination T-1105 (3a)+6-MMPR, 1105 only, and PBS. Viral genomes were detected and quantitated by RT-qPCR at 2 or 4 days post infection. […] These studies help predict a safe dose and timing of administration of the combination of favipiravir (T705) and 6-MMPR to treat RNA virus infections, such as SARS-CoV-2.
# IAV = test: Protection of Huh7 cells from IAV-induced cytopathic effects (MTS); format: cell-based, influenza A virus
# HCoV-OC43 = test: Potentiation against HCoV-OC43 in Huh7 cells; format: cell-based, human betacoronavirus OC43; details: HCoV-OC43, combination with 6-MMPR, MacSynergy; listed as favipiravir
# Method: HCoV-OC43. Huh7 cells were 12,500 Huh7 cells were seeded in a 96 well plate. Next day, the cells were inoculated with OC43 virus at a MOI (multiplicity of infection) of 0.5 for two hours. Next, the inoculum was removed and cells were treated with different combinations of 6MMPr and T-705 or remdesivir 1 μM (RDV) as positive control. Three wells per treatment were used. Cells were incubated for 5 days. Infected and treated cells were analyzed for cell viability by MTS and absorbance was measured at 490 nm.
# [6] = combination with 6-MMPR (AM28), MacSynergy II
smiles,measurement,setting,value
"NC(=O)c1nc[nH]n1 [Compound 1a, 1H-1,2,4-triazole-3-carboxamide]",antiviral activity of nucleobase alone,DENV replicon,no antiviral activity
same,antiviral (anti-replicon) activity when supplemented with 6-MMPR,DENV replicon,an increase in antiviral activity was observed
same,CC50 at 72 h,[1],> 665 µM
same,CC50,[2],> 1000 µM
same,cytotoxicity,[2]; at 1000 μM,did not show cytotoxicity
same,"TTI, tissue culture therapeutic index (CC50/EC50)",DENV-2 viral replicon [3],204
same,EC50,DENV-2 viral replicon [4],4.9 ± 1.6 µM
"NC(=O)c1ncn([C@@H]2O[C@H](CO)[C@@H](O)[C@H]2O)n1 [Compound 1b, 1-((2R,3R,4S,5R)-3,4-dihydroxy-5-(hydroxymethyl)tetrahydrofuran-2-yl)-1H-1,2,4-triazole-3-carboxamide, reference compound]",EC50,DENV-2 viral replicon [4],1.3 ± 0.1 µM
"NC(=O)c1nc[nH]c1O [Compound 2a, 5-hydroxy-1H-imidazole-4-carboxamide]",antiviral activity of nucleobase alone,DENV replicon,no antiviral activity
same,antiviral (anti-replicon) activity when supplemented with 6-MMPR,DENV replicon,an increase in antiviral activity was observed
same,CC50,[2],23 ± 4.2 µM
same,"TTI, tissue culture therapeutic index (CC50/EC50)",DENV-2 viral replicon [3],9.6
same,EC50,DENV-2 viral replicon [4],2.4 ± 0.1 µM
"NC(=O)c1ncn([C@@H]2O[C@H](CO)[C@@H](O)[C@H]2O)c1O [Compound 2b, 1-((2R,3R,4S,5R)-3,4-dihydroxy-5-(hydroxymethyl)tetrahydrofuran-2-yl)-5-hydroxy-1H-imidazole-4-carboxamide, reference compound]",CC50,[2],33 ± 12 µM
same,"TTI, tissue culture therapeutic index (CC50/EC50)",DENV-2 viral replicon [3],2.2
same,EC50,DENV-2 viral replicon [4],15 ± 7.8 µM
"NC(=O)c1nccnc1O [Compound 3a, 3-hydroxypyrazine-2-carboxamide]",cellular toxicity,Huh-7 cells,absence of cellular toxicity
same,EC50,DENV,20 ± 11 µM
same,synergy/potentiation with 6-MMPR for reduction in ZIKV replication,ZIKV,showed synergy
same,synergy/potentiation with 6-MMPR for reduction in ZIKV replication,ZIKV; listed as T-1105,synergistic effect
same,synergy/potentiation with 6-MMPR for reduction in DENV replication,DENV 2,synergistic effect
same,potentiation/synergy with 6-MMPR of anti-DENV activity,DENV 2,strongly potentiates
same,potentiation/synergy with 6-MMPR of anti-DENV activity,DENV 2; listed as T-1105,synergistic effect
same,synergy with 6-MMPR for reduction in DENV replicon replication,DENV replicon; [6],Stronger synergy
same,synergy with 6-MMPR for reduction in DENV replicon replication,"DENV replicon; combination with 6-MMPR (AM28), MacSynergy II, listed as T-1105",synergistic effect
same,CC50 at 72 h,[1],> 665 µM
same,CC50,[2],> 665 µM
same,times more active than nucleobase 5a (favipiravir),DENV-2 viral replicon [3]; DENV replicon,5
same,"TTI, tissue culture therapeutic index (CC50/EC50)",DENV-2 viral replicon [3],32
same,EC50,DENV-2 viral replicon [4],21 ± 0.7 µM
"NC(=O)c1nccn([C@@H]2O[C@H](CO)[C@@H](O)[C@H]2O)c1=O [Compound 3b, 4-((2R,3R,4S,5R)-3,4-dihydroxy-5-(hydroxymethyl)tetrahydrofurran-2-yl)-3-oxo-3,4-dihydropyrazine-2-carboxamide]",EC50,DENV,60 ± 22 µM
same,synergy/potentiation with 6-MMPR for reduction in ZIKV replication,ZIKV,did not potentiate
same,synergy/potentiation with 6-MMPR for reduction in ZIKV replication,ZIKV; listed as T-1106,does not produce a synergistic effect
same,synergy/potentiation with 6-MMPR for reduction in DENV replication,DENV 2,almost entirely an additive result
same,synergy/potentiation with 6-MMPR for reduction in DENV replication,DENV 2; listed as T-1106,does not produce a synergistic effect
same,synergy with 6-MMPR for reduction in DENV replicon replication,DENV replicon; [6],did not result in significant synergy
same,synergy with 6-MMPR for reduction in DENV replicon replication,"DENV replicon; combination with 6-MMPR (AM28), MacSynergy II, listed as T-1106",synergistic effect
same,CC50,[2],> 1000 µM
same,"TTI, tissue culture therapeutic index (CC50/EC50)",DENV-2 viral replicon [3],8.8
same,EC50,DENV-2 viral replicon [4],113 ± 11 µM
"Nc1nc(N)c2[nH]cnc2n1 [Compound 4a, 9H-purine-2,6-diamine]",CC50,[2],13 ± 2.1 µM
"NC(=O)c1nc(F)cnc1O [Compound 5a, 6-fluoro-3-hydroxypyrazine-2-carboxamide, reference compound]",safety of the combination with 6-MMPR,[5],safe
same,synergy/potentiation with 6-MMPR for reduction in ZIKV replication,ZIKV,showed synergy
same,synergy/potentiation with 6-MMPR for reduction in ZIKV replication,ZIKV; listed as T-705,synergistic effect
same,synergy/potentiation with 6-MMPR for reduction in ZIKV replication,ZIKV; listed as favipiravir,synergistic antiviral effect
same,synergy/potentiation with 6-MMPR for reduction in DENV replication,DENV 2; listed as T-705,synergistic effect
same,synergy/potentiation with 6-MMPR for reduction in DENV replication,DENV 2; listed as favipiravir,synergistic antiviral effect
same,synergy with 6-MMPR against IAV,IAV,synergistic antiviral effect; also recorded: clear synergy peak
same,protection of cells from IAV-induced cytopathic effects (CPE),"IAV; Huh7 cells, in combination with 6MMPR, listed as favipiravir",can protect cells; also recorded: protection of human cells from IAV-induced cell death
same,synergy with 6-MMPR for reduction in DENV replicon replication,DENV replicon,synergistic effect
same,CC50 at 72 h,[1],> 665 µM
same,CC50,[2],> 1000 µM
same,EC50,DENV-2 viral replicon [4],110 ± 30 µM
same,synergy with 6-MMPR in inhibiting production of infectious coronavirus particles,HCoV-OC43,synergistic antiviral effect; also recorded: synergistically increases; also recorded: clear synergistic effect
"COc1c(C)c2c(c(O)c1C/C=C(C)/C=C(\C)C(=O)O)C(=O)OC2 [Compound 6, (2E,4E)-6-(4-hydroxy-6-methoxy-7-methyl-3-oxo-1,3-dihydroisobenzofuran-5-yl)-2,4-dimethylhexa-2,4-dienoic acid, reference compound]",CC50,[2],1.4 ± 0.4 µM
same,"TTI, tissue culture therapeutic index (CC50/EC50)",DENV-2 viral replicon [3],4.7
same,EC50,DENV-2 viral replicon [4],0.3 ± 0.03 µM
"CSc1ncnc2c1ncn2[C@@H]1O[C@H](CO)[C@@H](O)[C@H]1O [Compound 6-MMPR, (2R,3S,4R,5R)-2-(hydroxymethyl)-5-(6-(methylthio)-9H-purin-9-yl)tetrahydrofuran-3,4-diol]",antiviral activity of 6-MMPR alone,"DENV replicon; 0.01 μM, alone",lack of antiviral activity
same,potentiation of nucleobase anti-replicon activity,DENV replicon; 6-MMPR 0.0025 and 0.005 μM,did not potentiate nucleobase anti-replicon activity
same,anti-replicon activity of their own,"DENV replicon; 6-MMPR 0.0025 and 0.005 μM, alone",nor did they have anti-replicon activity of their own
